Measurements published in patent publication US5891620A, “Steroid sulfatase assay” (Imperial College of Science, Technology and Medicine, priority 1994, dated 1999).

Tested on: Oestrone sulphatase activity in human white blood cells
Assay: Oestrone sulphatase activity in white blood cells of volunteers after an oral dose of inhibitor
Format: in vivo
Conditions: two healthy male volunteers; single oral dose 0.5 mg/Kg; white blood cells from blood samples taken for up to 28 days
Protocol: Purified leukocytes (according to Tulchinsky JCEM 65, 1026, 1987) from 10 ml whole blood are suspended in 1 ml PBS-sucrose. 0.2 ml of this is used for EST assay as above (incubated for 2 hr at 37° C. in a final volume of 1 ml).
After incubation, samples are extracted with 4 ml toluene. 2 ml of this is counted in 10 ml Scintillant.
The assay of the present invention, as described above, was investigated using two healthy, male volunteers whom received an oral dose of a steroid sulphatase inhibitor (Oestrone-3-O-sulphamate, 0.5 mg/Kg). In this regard, white blood cells were prepared from blood samples obtained from the subjects for up to 28 days. […] The results from this study confirm that the measurement of Oestrone Sulphatase activity in white blood cells will therefore allow the extent and duration of sulphatase inhibition to be monitored in subjects receiving steroid sulphatase inhibitors therapeutically. More details and results of these studies are shown in the attached FIG. 30. […] In particular, the assay of the present invention allows one to measure oestrone sulphatase activity in human white blood cells to monitor the extent of oestrone sulphatase inhibition.

SMILES: C[C@]12CC[C@@H]3c4ccc(OS(N)(=O)=O)cc4CC[C@H]3[C@@H]1CCC2=O [Oestrone-3-O-sulphamate]
- inhibition of Oestrone sulphatase activity in white blood cells: significant inhibition
